Melting point data for 85 compounds are collected here from a melting point compilation (Tetko et al.; mined from patent text by program, amines drawn as free bases though some values may be those of a salt).

Turning to `CC(Cl)(Cl)CC(O)(Cn1cncn1)c1ccc(Cl)cc1` (stereo not given), the melting point came to 106 °C.
`Cc1ccccc1-n1c(CC(O)c2ccccc2)nc2ccccc2c1=O` (stereo not given) displayed a melting point of 119 °C.
`Cc1nc(N)sc1C(=O)c1cccnc1` had a melting point of 287 to 288 °C.
For `Cc1ccc(Cl)cc1NC(=S)Nc1c(C)nn(C)c1C` the value was 176 to 177 °C.
`CCCCCS(=O)(=O)NC(=O)CCc1ccc(OCCOC)cc1Oc1ncc(Cl)cc1Cl` had a melting point of 92.2 to 93.6 °C.
For `COc1cc(C(=O)CS(=O)(=O)c2ccccc2)ccc1Cc1cn(C(C)C(=O)N(C)C)c2ccc(C(=O)NCC3CCCC3)cc12` (stereo not given) the value was 146 to 147 °C; for `CCC1C(=O)Nc2c(C(=O)c3ccc(Cl)cc3)cccc21` (stereo not given), 140 to 145 °C.
`Cc1ccc(Nc2c3ccccc3nc3ccccc23)cc1[N+](=O)[O-]`: the melting point is more than 280 °C.
For `O=C1CC2(C(=O)N1)C(=O)N1CCCc3cccc2c31` (stereo not given) the value was 253 to 255 °C.
`CS(=O)(=O)c1ccc(/C(=C2\CCN(CCC(=O)O)C2=O)c2ccc(Cl)cc2)cc1` yielded a melting point of 178 to 179 °C.
For `COc1ccc(N2CCN(c3c(C)c(C)c4c(c3C)C(O)C(C)(C)O4)CC2)cc1` (stereo not given) the value was 159 to 161 °C; for `Cc1c2c(cc3c(=O)c4ccccc4oc13)CC(CO)O2` (stereo not given), 242 to 243 °C; for `CC(O)(CSc1ccc(S(=O)(=O)c2ccccc2)cc1)C(F)(F)F` (stereo not given), 100 to 102 °C.
The compound `O=C(NC(=O)N1CCCCC1)c1cc(Cl)nc(Cl)c1` had a melting point of 183 to 185 °C.
Turning to `Cc1oc2c(C)c(C)c(NCc3ccc(F)cc3)c(C)c2c1-c1ccc(F)cc1`, the melting point was 107 to 109 °C.
For `COc1ccc([C@]2(c3ccc(F)c(-c4cncnc4)c3)N=C(N)N(C)C2=O)cc1C` the value was 115 °C.
In turn, `O=P1(C2CCCCC2)c2ccccc2CN1c1ccccc1` (stereo not given) came in with a melting point of 167 to 169 °C.
For `CC(C)C(N)=NC(=Nc1ccccc1)N1CCOCC1` the value was 123 to 126 °C; for `Cc1nc2c(OCc3c(Cl)ccc(S(=O)(=O)N4CCC[C@H]4C(=O)NCCCNC(=O)c4ccc(C(N)=NO)cc4)c3Cl)cccn2c1Cl`, 155 °C; for `COc1ccc(-c2sc3cc(OC)ccc3c2Br)cc1`, 83 °C.
The compound `Cc1cc(-c2nncc3c(C(C)(C)C)c(OCc4ccncc4)nn23)no1` registered a melting point of 119 to 121 °C.
For `CCOC(=O)c1cnn(-c2cccc(Cl)c2)c1Cl` the value was 61 to 63 °C; for `Cn1nnc(-c2cn(C)c3ccccc3c2=O)n1`, 189 to 192 °C; for `Cc1cc(C(=O)NCO)ncc1C(c1c(F)ccc(F)c1F)S(=O)(=O)CCC(F)(F)F` (stereo not given), 146 to 148 °C.
In turn, `CC(=O)c1ccc2c(c1)ncn2-c1cccc(-c2cncnc2)c1` yielded a melting point of 253 to 254 °C.
Regarding `Cc1ccc(OCC(=O)O)c2c3c(C(N)=O)cccc3n(Cc3ccccc3)c12`, the melting point lay within 253 to 254 °C.
Compound `Nc1cc(CCC(=O)N2CCCCC2)ccc1O` had a melting point of 149 to 150 °C.
For the compound `COc1cccc(NC(=O)NC2N=C(C)c3ccccc3N(CC(=O)N(C)c3ccccc3)C2=O)c1` (stereo not given), the melting point is 238 to 239 °C.
For `CCOC(=O)C(=O)c1csc(NC(c2ccccc2)c2ccccc2)n1` the value was 82 to 85 °C; for `COC(=O)Cc1ccc(OCCNC(=O)C2Cc3ccccc3N2S(=O)(=O)c2ccc(-c3cc(C)ccc3F)cc2)cc1` (stereo not given), 55 to 58 °C; for `Cc1ccc(N2N=C3c4cc(CCO)sc4CCC3CC2=O)cc1` (stereo not given), 159 to 160 °C.
The compound `C=NC(c1cccc(Nc2n[nH]c3ncnc(Nc4cccc(Cl)c4)c23)c1)N(C)C` (stereo not given) had a melting point of 175 to 177 °C.
Consider `COc1ccc(C(=O)Nc2ccccc2)cc1NC(=S)Nc1cc(C(F)(F)F)cc(C(F)(F)F)c1`, for which the melting point lay within 192 to 193 °C.
The compound `COc1cc(-c2cc(-c3ccccc3)c(N3CCOCC3)s2)nc(OC)c1OC` gave a melting point of 124 °C.
The compound `CS(=O)(=O)c1ccc(Oc2ccc([N+](=O)[O-])cc2[N+](=O)[O-])cc1` registered a melting point of 176 to 177 °C.
The compound `CCCC(=O)Nc1n[nH]c2cc(Cl)c(Br)cc12` returned a melting point of 250 °C.
In turn, `Cc1ccc(-c2cccc(OC3SCC(O)C(O)C3O)c2)nc1` (stereo not given) showed a melting point of 185 to 189 °C.
As to `Cc1ncc(CNC(=O)c2sc(N3CCN(Cc4ccc(F)cc4)C3=O)nc2C)s1`, the melting point was 213 to 215 °C.
For the compound `COc1nc(NC(COC(=O)NC(C)C)C(C)(C)C)nc(OC)c1[N+](=O)[O-]` (stereo not given), the melting point amounted to 110 °C.
For `FCc1ccc(-c2ccc(-c3cn([C@H]4CN5CCC4CC5)nn3)s2)cc1` the value was 199 °C; for `CC(C)CN(C(=O)N(CCCl)N=O)C1(O)C(OC2CCCCC2)OC(CO)C1O` (stereo not given), 70 to 72 °C; for `CCCC12CCC(=O)C=C1c1c(cc(CC(=O)O)c(Cl)c1Cl)O2` (stereo not given), 248 to 250 °C.
The same measure for `Clc1ccc2c(c1)N=C(N1CCN(C3CC3)CC1)c1ccccc1N2`: 196 to 199 °C.
For the compound `COc1cc(NC(C)CCCN2C(=O)c3ccccc3C2=O)c2ncccc2c1Oc1ccc(Cl)cc1` (stereo not given), the melting point was in the range of 75 to 77 °C.
For `O=C(O)CN(CC(=O)O)c1cccc(N(CC(=O)O)CC(=O)O)c1` the value was 188 °C.
The compound `O=c1cc(C(F)(F)F)nc(Cl)n1-c1cc(Oc2ncccn2)c(Cl)cc1F` had a melting point of 132 to 134 °C.
Compound `CCCc1ccc(OCc2ccc(OCc3nc(-c4ccccc4)oc3C)cc2)c(CC(=O)O)c1` yielded a melting point of 116 to 117 °C.
Regarding `CC1C(=O)N(c2ccc(F)cc2)C(=S)N1c1ccc(Oc2ccccc2)cc1` (stereo not given), the melting point was 150 °C.
On to `Cc1ccc(S(=O)(=O)OCCOCn2cc(F)c(=O)[nH]c2=O)cc1`, for which the melting point is 141 to 142 °C.
For `COC(=O)c1cccc([N+](=O)[O-])c1NCc1ccc(-c2ccccc2-c2nnnn2Cc2ccccc2)cc1` the value was 115 to 117 °C.
`CCOC(=O)c1cn2cccc(C(=O)OCC)c2n1` displayed a melting point of 97 °C.
For the compound `CCN(CC)C[C@@H]1CCCN1CC(=O)N1c2ccccc2C(=O)Nc2cccnc21`, the melting point lay within 192 to 193 °C.
For `COC(=O)Cc1ccc(O)c(NC(=O)c2c(C)c(OC)c(C)c(C)c2OC)c1` the value was 98 to 100 °C; for `Cc1nnc(SCC2=C(C(=O)OC(c3ccccc3)c3ccccc3)N3C(=O)C(N)C3SC2)s1` (stereo not given), 157 to 159 °C.
Turning to `CN(C)CCOC(=O)c1cc2cccc(OCc3ccccc3)c2[nH]1`, the melting point was in the range of 113 to 115 °C.
`COC(=O)CC[C@H](NC(=O)CCCCCCC1CNc2nc(NC(=O)C(C)(C)C)nc(O)c2C1)C(=O)OC` (stereo not given in full) returned a melting point of 152 to 160 °C.
With `O=C(Nc1ccc(C(F)(F)F)cc1)C12CC3CC(CC(C3)C1)C2`, the melting point fell in the range of 189 to 193 °C.
The compound `CCCCCC(CC(=O)Nc1cc(CNC(N)=O)ccc1C(C)(C)C)c1ccc(OC)cc1OC` (stereo not given) yielded a melting point of 112 to 113 °C.
`O=C(NC(CC1CCCC1)C(=O)NC1CCCN(C(=O)c2ccccc2)CC1=O)c1ccco1` (stereo not given) gave a melting point of 97 to 100 °C.
The compound `CCOc1ccc(Nc2cc(C)nc3cn[nH]c23)cc1` came in with a melting point of 217 °C.
The same measure for `CCOC(=O)c1cc2cc(OCCCOC)cc(N)c2[nH]1`: 139 to 140 °C; for `NS(=O)(=O)c1ccc(C(=O)NCCCN2CCOCC2)cc1`: 196 to 198 °C.
On to `CCN1C(=Cc2ccc([N+](=O)[O-])cc2C#N)C=Cc2ccccc21`, for which the melting point lay within 183 to 184 °C.
In turn, `CCc1cc(C(=O)c2ccccc2Cl)c(-n2cnnc2CNS(=O)(=O)c2ccc3ccccc3c2)s1` had a melting point of 165 to 167 °C.
With `Cc1cc2c(=O)[nH]c(CCl)nc2cc1Cl`, the melting point lay in the range of 287 to 290 °C.
Compound `Cc1cc(=O)n2nc(-c3ccc(F)cc3)c(-c3ccncc3)c2[nH]1` returned a melting point of more than 280 °C.
For the compound `CCOc1ccc(F)c(N2Cc3cnc(NCCCCN(CC)CC)nc3N(C3CCCC3)C2=O)c1F`, the melting point lay within 129 to 130 °C.
In turn, `COP(=O)(Cc1cccc2cccc(CP(=O)(OC)OC)c12)OC` returned a melting point of 168 to 170 °C.
In the case of `C=CCNc1nc(NCC(F)(F)F)nc2ccc([N+](=O)[O-])cc12`, the melting point lay within 221 to 222 °C.
Turning to `Cc1ccccc1S(=O)(=O)NC(=O)c1ccc2c(ccn2Cc2cccc(NC(=O)OC3CCCC3)c2)c1`, the melting point is 188 to 190 °C.
For `CCCCc1ccc(CNC(=O)OC(C)(C)C)c(=O)n1Cc1ccc(-c2ccccc2-c2nnn[nH]2)cc1` the value was 105 °C.
Regarding `CC(=O)OC1(C)CCCCC1C1CCCCC1` (stereo not given), the melting point was 35 °C.
`CS(=O)(=O)NCCC1(C[N+](=O)[O-])CCCCC1` returned a melting point of 86 to 88 °C.
As to `CC1CC2C3CCC4=CC(=O)C=CC4(C)C3=CCC2(C)C1(O)C#N` (stereo not given), the melting point fell in the range of 241 to 248 °C.
The same measure for `COC(=O)c1ccc(S(C)(=O)=O)c(-c2ccon2)c1C`: 87 to 89 °C.
The compound `Cc1c(C)c2c(c(C)c1NC(=O)c1ccc(F)cc1)C(c1ccc(F)cc1)C(C)(C)O2` (stereo not given) showed a melting point of 140 to 142 °C.
The compound `CCNc1c(OC)cc(C(=O)OC)cc1OC` registered a melting point of 50 to 51 °C.
As for `CC(C)(C)C(=O)Nc1c[nH]nc1C(=O)NCCC#N`, the melting point was 165 to 166 °C.
With `C=CCN(c1nc(N2CCN(C(=O)n3ccnc3)CC2)nc(N(CC=C)C2CCCCC2)n1)C1CCCCC1`, the melting point lay in the range of 132 to 135 °C.
For the compound `CCCc1nc2c(N)nc(C)c(C)c2n1CCCCCS(C)(=O)=O`, the melting point was 145 to 146 °C.
On to `CCCc1nc(C(C)(C)O)c(C(=O)OC2OC(=O)c3ccccc32)n1Cc1ccc(-c2ccccc2C(=O)O)cc1` (stereo not given), for which the melting point lay within 142 to 144 °C.
Compound `CN(C)C1=NC(NC(=O)CC2CCCCC2)C(=O)N(c2ccccc2)c2ccccc21` (stereo not given) showed a melting point of 264 to 266 °C.
The same measure for `CCC1(CC)Cc2c(C(=O)O)ccc(OC)c2O1`: 152 to 154 °C; for `Fc1ccc(Nc2nc(NC3CCOCC3)nc(OCC(F)(F)F)n2)cc1Cl`: 190 to 191 °C.
Consider `COC(=O)C(C)(C)C(O)CCOc1cc(C)ccc1C` (stereo not given), for which the melting point is 40.5 to 41 °C.
